Data: publication PMC4012464, “Design, Synthesis and Biological Evaluation of Tasiamide Analogues as Tumor Inhibitors” (Marine Drugs, 2014)
Read-outs that look alike come from different tables or passages of the source. Non-standard residues stand in square brackets, D forms with d. Residues, ends and D or L forms follow the SMILES beside them. *: point of attachment. Pentanoyl(2S-OH,3S-Me) = CC[C@H](C)[C@H](O)C(=O)*; Tetrahydroisoquinolin(2-yl) = c1ccc2c(c1)CCN(*)C2; dNMeF = CN[C@H](Cc1ccccc1)C(=O)O; NMeQ = CN[C@@H](CCC(N)=O)C(=O)O; Tic = O=C(O)[C@@H]1Cc2ccccc2CN1; X1 = CN(C)[C@H](CCC(N)=O)C(=O)*; dNMeQ = CN[C@H](CCC(N)=O)C(=O)O; NMeA = CN[C@@H](C)C(=O)O; Pentanoyl = CCCCC(=O)*; NHBn = c1ccc(CN*)cc1; Glycolyl = O=C(CO)*; NHPh = c1ccc(N*)cc1; OBn = c1ccc(CO*)cc1

Legend:
[1] = system: A549, human non-small cell lung tumor cell line; test: cells; format: cell-based; details: growth inhibition after 72 h of drug exposure, SRB staining, A515, means ± standard deviation from three independent experiments, read-out: In vitro inhibitory activity IC50, A549
Protocol: (§1) All of the prepared analogues (S1–S4, C1–C9, N1–N2, M1–M3) were tested for their in vitro anticancer activities against KB and A549 cell lines. Briefly, cells were seeded into 96-well plates and cultured overnight, treated with tested samples for 72 h. Then, the cells were fixed with 10% trichloroacetic acid (100 µL) and stained with sulforhodamine B (Sigma, St. Louis, MO, USA). The sulforhodamine B (100 µL) in the cells was dissolved in 10 mmol/L Tris-HCl (150 µL) and measured at 515 nm using a multiwell spectrophotometer (VERSAmax, Molecular Devices, Sunnyvale, CA, USA). The inhibition rate on cell proliferation was calculated for each well as (A515control cells − A515treated cells)/A515control cells × 100% (A515: optical density value at 515 nm). The average IC50 values were determined by the Logit method from at least three independent tests.

[2] = system: KB, human nasopharyngeal carcinoma cell line; test: cells; format: cell-based; details: growth inhibition after 72 h of drug exposure, SRB staining, A515, means ± standard deviation from three independent experiments, read-out: In vitro inhibitory activity IC50, KB
Protocol: as §1

[3] = system: human colon carcinoma (LoVo) cell line; details: natural product isolated from Symploca sp.; cited from earlier work
Source text: (§2) Marine cyanobacteria are a well-known prolific source of novel bioactive compounds [1, 2, 3], most of which are linear or cyclic (depsi)peptides with distinctive structures. […] The first total synthesis of tasiamide was reported by our group in 2008.

[4] = system: human nasopharyngeal carcinoma (KB) cell line; details: natural product isolated from Symploca sp.; cited from earlier work
Source text: as §2

| SMILES | IC50 [1] [µM] | IC50 [2] [µM] | Cytotoxicity IC50, LoVo [3] [µg/mL] | Cytotoxicity IC50, KB [4] [µg/mL] | IC50 ([1]; Homo sapiens) [µM] | IC50 ([2]; Homo sapiens) [µM] |
| --- | --- | --- | --- | --- | --- | --- |
| CC[C@H](C)[C@H](O)C(=O)N[C@@H](CC(C)C)C(=O)N(C)[C@H](CCC(N)=O)C(=O)N[C@H](C(=O)NCC(=O)N(C)[C@H](Cc1ccccc1)C(=O)N1CCC[C@H]1C(=O)OC)[C@@H](C)CC [Compound T2, tasiamide] ({Pentanoyl(2S-OH,3S-Me)}-L[dNMeQ]IG[dNMeF]P-OMe) | > 50 | 0.58 ± 0.07 | 3.47 | 0.48 | – | – |
| CC[C@H](C)[C@H](O)C(=O)N[C@@H](CC(C)C)C(=O)N(C)[C@@H](CCC(N)=O)C(=O)N[C@H](C(=O)NCC(=O)N(C)[C@H](Cc1ccccc1)C(=O)Nc1ccccc1)[C@@H](C)CC [Compound C1, HO-Hmp-Leu-N-Me-Gln-Ile-Gly-N-Me-D-Phe-NH-Ph] ({Pentanoyl(2S-OH,3S-Me)}-L[NMeQ]IG[dNMeF]-NHPh) | 4.17 ± 0.51 | 3.21 ± 0.6 | – | – | – | – |
| COc1cc([C@@H]2c3cc4c(cc3[C@@H](O[C@@H]3O[C@@H]5CO[C@@H](C)O[C@H]5[C@H](O)[C@H]3O)[C@H]3COC(=O)[C@H]23)OCO4)cc(OC)c1O [Etoposide, etoposide, reference compound] | – | – | – | – | 0.99 ± 0.09 | 0.85 ± 0.08 |
| CC[C@H](C)[C@@H](C(=O)NCC(=O)N(C)[C@H](Cc1ccccc1)C(=O)N1CCC[C@H]1C(=O)OC)N(C)C [Compound S2, N,N-Me2-Ile-Gly-N-Me-D-Phe-Pro-OMe] | > 50 | > 50 | – | – | – | – |
| CCCCC(=O)N[C@@H](CC(C)C)C(=O)N(C)[C@H](CCC(N)=O)C(=O)N[C@H](C(=O)NCC(=O)N(C)[C@H](Cc1ccccc1)C(=O)NCc1ccccc1)[C@@H](C)CC [Compound N1, n-Pentanoyl-Leu-N-Me-D-Gln-Ile-Gly-N-Me-D-Phe-NH-Bn] (Pentanoyl-L[dNMeQ]IG[dNMeF]-NHBn) | > 50 | > 50 | – | – | – | – |
| CC[C@H](C)[C@H](O)C(=O)N[C@@H](CC(C)C)C(=O)N(C)[C@H](CCC(N)=O)C(=O)N[C@H](C(=O)NCC(=O)OCc1ccccc1)[C@@H](C)CC [Compound S4, HO-Hmp-Leu-N-Me-D-Gln-Ile-Gly-OBn] ({Pentanoyl(2S-OH,3S-Me)}-L[dNMeQ]IG-OBn) | > 50 | > 50 | – | – | – | – |
| CC[C@H](C)[C@H](O)C(=O)N[C@@H](CC(C)C)C(=O)N(C)[C@H](CCC(N)=O)C(=O)N[C@H](C(=O)NCC(=O)N(C)[C@H](Cc1ccccc1)C(=O)N1Cc2ccccc2C[C@H]1C(=O)OC)[C@@H](C)CC [Compound C6, HO-Hmp-Leu-N-Me-D-Gln-Ile-Gly-N-Me-D-Phe-NH-MTC] ({Pentanoyl(2S-OH,3S-Me)}-L[dNMeQ]IG[dNMeF][Tic]-OMe) | 12.9 ± 1.32 | 8.52 ± 1.41 | – | – | – | – |
| CC[C@H](C)[C@H](O)C(=O)N[C@@H](CC(C)C)C(=O)N(C)[C@H](CCC(N)=O)C(=O)N[C@H](C(=O)NCC(=O)N(C)[C@H](Cc1ccccc1)C(=O)Nc1ccccc1)[C@@H](C)CC [Compound C2, HO-Hmp-Leu-N-Me-D-Gln-Ile-Gly-N-Me-D-Phe-NH-Ph] ({Pentanoyl(2S-OH,3S-Me)}-L[dNMeQ]IG[dNMeF]-NHPh) | > 50 | 8.26 ± 1.22 | – | – | – | – |
| CC[C@H](C)[C@H](O)C(=O)N[C@@H](CC(C)C)C(=O)N[C@H](CCC(N)=O)C(=O)N[C@H](C(=O)NCC(=O)N(C)[C@H](Cc1ccccc1)C(=O)NCc1ccccc1)[C@@H](C)CC [Compound M1, HO-Hmp-Leu-D-Gln-Ile-Gly-N-Me-D-Phe-NH-Bn] ({Pentanoyl(2S-OH,3S-Me)}-L[dQ]IG[dNMeF]-NHBn) | > 50 | > 50 | – | – | – | – |
| CC[C@H](C)[C@H](O)C(=O)N[C@@H](CC(C)C)C(=O)N(C)[C@H](CCC(N)=O)C(=O)N[C@H](C(=O)NCC(=O)N(C)[C@H](Cc1ccccc1)C(=O)NCc1ccccc1)[C@@H](C)CC [Compound C4, HO-Hmp-Leu-N-Me-D-Gln-Ile-Gly-N-Me-D-Phe-NH-Bn] ({Pentanoyl(2S-OH,3S-Me)}-L[dNMeQ]IG[dNMeF]-NHBn) | 8.48 ± 1.39 | 1.29 ± 0.31 | – | – | – | – |
| CC[C@H](C)[C@H](NC(=O)[C@@H](CCC(N)=O)N(C)C)C(=O)NCC(=O)N(C)[C@H](Cc1ccccc1)C(=O)N1CCC[C@H]1C(=O)OC [Compound S1, N,N-Me2-D-Gln-Ile-Gly-N-Me-D-Phe-Pro-OMe] (X1-IG[dNMeF]P-OMe) | > 50 | > 50 | – | – | – | – |
| CC[C@H](C)[C@H](O)C(=O)N[C@@H](CC(C)C)C(=O)N(C)[C@@H](CCC(N)=O)C(=O)N[C@H](C(=O)NCC(=O)N(C)[C@H](Cc1ccccc1)C(=O)N1CCc2ccccc2C1)[C@@H](C)CC [Compound C7, HO-Hmp-Leu-N-Me-Gln-Ile-Gly-N-Me-D-Phe-NH-TIQ] ({Pentanoyl(2S-OH,3S-Me)}-L[NMeQ]IG[dNMeF]-{Tetrahydroisoquinolin(2-yl)}) | 3.67 ± 0.66 | 3.8 ± 0.46 | – | – | – | – |
| CC[C@H](C)[C@H](NC(=O)[C@@H](CCC(N)=O)N(C)C(=O)[C@H](CC(C)C)NC(=O)CO)C(=O)NCC(=O)N(C)[C@H](Cc1ccccc1)C(=O)NCc1ccccc1 [Compound N2, 2-Hydroxyacetyl-Leu-N-Me-D-Gln-Ile-Gly-N-Me-D-Phe-NH-Bn] (Glycolyl-L[dNMeQ]IG[dNMeF]-NHBn) | > 50 | > 50 | – | – | – | – |
| CC[C@H](C)[C@H](O)C(=O)N[C@@H](CC(C)C)C(=O)N(C)[C@@H](CCC(N)=O)C(=O)N[C@H](C(=O)NCC(=O)N(C)[C@H](Cc1ccccc1)C(=O)N1Cc2ccccc2C[C@H]1C(=O)OC)[C@@H](C)CC [Compound C5, HO-Hmp-Leu-N-Me-Gln-Ile-Gly-N-Me-D-Phe-NH-MTC] ({Pentanoyl(2S-OH,3S-Me)}-L[NMeQ]IG[dNMeF][Tic]-OMe) | 5.24 ± 1.12 | 2.45 ± 0.41 | – | – | – | – |
| CC[C@H](C)[C@H](O)C(=O)N[C@@H](CC(C)C)C(=O)N(C)[C@H](CCC(N)=O)C(=O)N[C@H](C(=O)NCC(=O)N[C@H](Cc1ccccc1)C(=O)NCc1ccccc1)[C@@H](C)CC [Compound M2, HO-Hmp-Leu-N-Me-D-Gln-Ile-Gly-D-Phe-NH-Bn] ({Pentanoyl(2S-OH,3S-Me)}-L[dNMeQ]IG[dF]-NHBn) | > 50 | > 50 | – | – | – | – |
| CC[C@H](C)[C@H](O)C(=O)N[C@@H](CC(C)C)C(=O)N(C)[C@@H](C)C(=O)N[C@H](C(=O)NCC(=O)N(C)[C@H](Cc1ccccc1)C(=O)NCc1ccccc1)[C@@H](C)CC [Compound C9, HO-Hmp-Leu-N-Me-Ala-Ile-Gly-N-Me-D-Phe-NH-Bn] ({Pentanoyl(2S-OH,3S-Me)}-L[NMeA]IG[dNMeF]-NHBn) | > 50 | > 50 | – | – | – | – |
| CC[C@H](C)[C@H](O)C(=O)N[C@@H](CC(C)C)C(=O)N(C)[C@@H](CCC(N)=O)C(=O)N[C@H](C(=O)NCC(=O)N(C)[C@H](Cc1ccccc1)C(=O)NCc1ccccc1)[C@@H](C)CC [Compound C3, HO-Hmp-Leu-N-Me-Gln-Ile-Gly-N-Me-D-Phe-NH-Bn] ({Pentanoyl(2S-OH,3S-Me)}-L[NMeQ]IG[dNMeF]-NHBn) | 2.24 ± 0.44 | 2.08 ± 0.33 | – | – | – | – |
| CC[C@H](C)[C@H](O)C(=O)N[C@@H](CC(C)C)C(=O)N(C)[C@H](CCC(N)=O)C(=O)N[C@H](C(=O)NCC(=O)N(C)[C@H](Cc1ccccc1)C(=O)N1CCc2ccccc2C1)[C@@H](C)CC [Compound C8, HO-Hmp-Leu-N-Me-D-Gln-Ile-Gly-N-Me-D-Phe-NH-TIQ] ({Pentanoyl(2S-OH,3S-Me)}-L[dNMeQ]IG[dNMeF]-{Tetrahydroisoquinolin(2-yl)}) | > 50 | 3.64 ± 0.55 | – | – | – | – |
| CC[C@H](C)[C@H](O)C(=O)N[C@@H](CC(C)C)C(=O)N(C)[C@H](CCC(N)=O)C(=O)N[C@H](C(=O)OCc1ccccc1)[C@@H](C)CC [Compound S3, HO-Hmp-Leu-N-Me-D-Gln-Ile-OBn] | > 50 | > 50 | – | – | – | – |
| CC[C@H](C)[C@H](O)C(=O)N[C@@H](CC(C)C)C(=O)N[C@H](CCC(N)=O)C(=O)N[C@H](C(=O)NCC(=O)N[C@H](Cc1ccccc1)C(=O)NCc1ccccc1)[C@@H](C)CC [Compound M3, HO-Hmp-Leu-D-Gln-Ile-Gly-D-Phe-NH-Bn] ({Pentanoyl(2S-OH,3S-Me)}-L[dQ]IG[dF]-NHBn) | > 50 | > 50 | – | – | – | – |
